Data as given in patent US10065990B2, “Cyclic peptide compound, and preparation method, pharmaceutical composition and use thereof” (HANGZHOU GUANYU BIO-MEDICAL CO., LTD, priority 2013, dated 2018).
Where two headings read alike, the source gives them in different places.

Key:
[1] = system: A549 (human lung cancer cells); assay: MTT cancer cell growth inhibition; type: cell-based; settings: Homo sapiens, A549, 72 h, MTT, 72 hours incubation, read-out: GI50 A54
Procedure, shortened: (§1)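 GI50 values come from viability measured by MTT reduction at 570 nm. Plated overnight at 1500 cells per well, cultures received drug in three parallel wells across 10^−5–10^−10 M final and were incubated 72 h at 37° C. under 5% CO2 before MTT for 4 h.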

[2] = system: BGC-823 (human gastric cancer cells); assay: MTT cancer cell growth inhibition; type: cell-based; settings: Homo sapiens, BGC-823, 72 h, MTT, 72 hours incubation, read-out: GI50 BG
Procedure, shortened: as §1

[3] = system: SGC-7901 (human gastric cancer cells); assay: MTT cancer cell growth inhibition; type: cell-based; settings: Homo sapiens, SGC-7901, 72 h, MTT, 72 hours incubation, SGC-7901 cells; read-out: GI50 SGC-7901
Procedure, shortened: as §1

[4] = system: N-87 (human gastric cancer cells); assay: MTT cancer cell growth inhibition; type: cell-based; settings: Homo sapiens, 72 h, MTT, 72 hours incubation, N-87 cells; read-out: GI50 N-87
Procedure, shortened: as §1

[5] = system: Huh-7 (human hepatoma cells); assay: MTT cancer cell growth inhibition; type: cell-based; settings: Homo sapiens, Huh-7, 72 h, MTT, 72 hours incubation, Huh-7 cells; read-out: GI50 Huh-7
Procedure, shortened: as §1

[6] = system: MCF-7 (human breast cancer cells); assay: MTT cancer cell growth inhibition; type: cell-based; settings: Homo sapiens, MCF7, 72 h, 72 hours incubation, read-out: GI50 MCF
Procedure, shortened: as §1

[7] = system: KBM5-T315I (human chronic myelogenous leukemia); assay: MTT cancer cell growth inhibition; type: cell-based; settings: Homo sapiens, 72 h, MTT, 72 hours incubation, KBM5-T315I cells; read-out: GI50 KBM5-T315I
Procedure, shortened: as §1

[8] = system: lncap (prostate cancer cells); assay: MTT cancer cell growth inhibition; type: cell-based; settings: Homo sapiens, LNCaP, 72 h, MTT, 72 hours incubation, read-out: GI50 lnca
Procedure, shortened: as §1

[9] = system: PANC-1 (Pac-1, human pancreatic cancer cells); assay: MTT cancer cell growth inhibition; type: cell-based; settings: Homo sapiens, PANC-1, 72 h, MTT, 72 hours incubation, read-out: GI50 PAN
Procedure, shortened: as §1

[10] = system: MDA-MB-231 (breast cancer cells); assay: MTT cancer cell growth inhibition; type: cell-based; settings: Homo sapiens, MDA-MB-231, 72 h, read-out: GI50 MDA-MB-231, MTT, 72 hours incubation, MDA-MB-231 cells
Procedure, shortened: as §1

[11] = system: H1975 (non-small cell lung adenocarcinoma); assay: MTT cancer cell growth inhibition; type: cell-based; settings: Homo sapiens, NCI-H1975, 72 h, MTT, 72 hours incubation, H1975 cells; read-out: GI50 H1975
Procedure, shortened: as §1

[12] = system: U937 (human leukemia cells); assay: MTT cancer cell growth inhibition; type: cell-based; settings: Homo sapiens, U-937, 72 h, MTT, 72 hours incubation, read-out: GI50 U93
Procedure, shortened: as §1

[13] = system: KBM-5 (human chronic myelogenous leukemia); assay: MTT cancer cell growth inhibition; type: cell-based; settings: Homo sapiens, KBM5, 72 h, MTT, 72 hours incubation, KBM-5 cells; read-out: GI50 KBM-5
Procedure, shortened: as §1

[14] = system: HCC827 (human non-small cell lung cancer cells); assay: MTT cancer cell growth inhibition; type: cell-based; settings: Homo sapiens, HCC827, 72 h, MTT, 72 hours incubation, HCC827 cells; read-out: GI50 HCC827
Procedure, shortened: as §1

[15] = system: DU145 (human prostate cancer cells); assay: MTT cancer cell growth inhibition; type: cell-based; settings: Homo sapiens, DU-145, 72 h, MTT, 72 hours incubation, read-out: GI50 Du1
Procedure, shortened: as §1

[16] = system: Bel-7402 (human hepatoma cells); assay: MTT cancer cell growth inhibition; type: cell-based; settings: Homo sapiens, Bel-7402, 72 h, MTT, 72 hours incubation, Bel-7402 cells; read-out: GI50 Bel-7402
Procedure, shortened: as §1

[17] = system: Hela (human cervical cancer cells); assay: MTT cancer cell growth inhibition; type: cell-based; settings: Homo sapiens, HeLa, 72 h, MTT, 72 hours incubation, read-out: GI50 Hela
Procedure, shortened: as §1

[18] = system: K562 (human leukemia cells); assay: MTT cancer cell growth inhibition; type: cell-based; settings: Homo sapiens, K562, 72 h, MTT, 72 hours incubation, K562 cells; read-out: GI50 K562
Procedure, shortened: as §1

[19] = system: MOLT-4 (human acute lymphoblastic leukemia cells); assay: MTT cancer cell growth inhibition; type: cell-based; settings: Homo sapiens, MOLT-4, 72 h, MTT, 72 hours incubation, read-out: GI50 Mol
Procedure, shortened: as §1

[20] = system: HT1080 (human fibrosarcoma cells); assay: MTT cancer cell growth inhibition; type: cell-based; settings: Homo sapiens, HT-1080, 72 h, MTT, 72 hours incubation, read-out: GI50 HT1
Procedure, shortened: as §1

HDAC7 = target: T1, HDAC7 (Homo sapiens, UniProt Q8WUI4); assay: HDAC biochemical activity measurement (fluorescent substrate deacetylation);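 on all read-outs here: fluorogenic deacetylation assay using acetyl-lysine substrate at 20 µM, enzyme and compound incubated 30 min at 37 °C, then developer added, fluorescence read at 360/460 nm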; settings: for IC50 HDAC7: 37° C. 30 minutes
T1 sequence (Q8WUI4 1-952): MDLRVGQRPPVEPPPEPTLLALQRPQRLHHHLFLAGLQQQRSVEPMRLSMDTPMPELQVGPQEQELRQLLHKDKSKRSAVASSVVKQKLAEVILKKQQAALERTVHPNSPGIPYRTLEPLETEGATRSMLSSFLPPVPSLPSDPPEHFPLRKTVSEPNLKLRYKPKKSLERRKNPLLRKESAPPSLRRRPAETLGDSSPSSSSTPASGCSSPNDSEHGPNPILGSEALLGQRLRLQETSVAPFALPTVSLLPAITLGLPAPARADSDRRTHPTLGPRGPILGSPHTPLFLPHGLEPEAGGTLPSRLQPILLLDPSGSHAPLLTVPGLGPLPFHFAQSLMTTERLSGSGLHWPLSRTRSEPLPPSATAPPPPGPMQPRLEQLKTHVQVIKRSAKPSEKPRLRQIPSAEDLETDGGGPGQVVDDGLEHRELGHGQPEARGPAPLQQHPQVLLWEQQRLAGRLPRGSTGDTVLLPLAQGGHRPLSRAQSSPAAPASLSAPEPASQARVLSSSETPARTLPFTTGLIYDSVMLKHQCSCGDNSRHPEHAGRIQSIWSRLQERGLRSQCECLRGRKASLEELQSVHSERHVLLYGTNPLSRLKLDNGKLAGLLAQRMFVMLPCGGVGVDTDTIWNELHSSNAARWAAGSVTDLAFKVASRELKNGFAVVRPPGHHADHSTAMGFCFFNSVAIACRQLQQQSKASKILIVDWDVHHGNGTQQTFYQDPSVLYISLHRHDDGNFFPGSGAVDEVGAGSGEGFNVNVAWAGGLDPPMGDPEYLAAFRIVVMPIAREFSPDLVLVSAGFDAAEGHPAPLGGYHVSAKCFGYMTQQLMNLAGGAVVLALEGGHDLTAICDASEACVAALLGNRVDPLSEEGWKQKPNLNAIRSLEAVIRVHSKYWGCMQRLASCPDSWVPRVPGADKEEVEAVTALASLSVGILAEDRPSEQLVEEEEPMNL

| Structure (SMILES) | GI50 ([1]; A549 cells) [nM] | GI50 ([2]; BGC-823 cells) [nM] | GI50 [3] [nM] | GI50 [4] [nM] | GI50 [5] [nM] | GI50 ([6]; MCF-7 cells) [nM] | GI50 [7] [nM] | GI50 ([8]; lncap cells) [nM] | GI50 ([9]; PANC-1 cells) [nM] | GI50 [10] [nM] | GI50 [11] [nM] | GI50 ([12]; U937 cells) [nM] | GI50 [13] [nM] | GI50 [14] [nM] | GI50 ([15]; DU145 cells) [nM] | GI50 [16] [nM] | GI50 ([17]; Hela cells) [nM] | GI50 [18] [nM] | GI50 ([19]; MOLT-4 cells) [nM] | IC50 HDAC7 (HDAC7) | other results |
| --- | --- | --- | --- | --- | --- | --- | --- | --- | --- | --- | --- | --- | --- | --- | --- | --- | --- | --- | --- | --- | --- |
| C/C=C1\NC(=O)c2nc(ccc2SCC)CNC(=O)C[C@@H](/C=C/CCSC(=O)CCCCC)OC(=O)[C@H](C(C)C)NC1=O [Compound 253] | 30 | 50 | 18 | 35 | 72 | 60 | 78 | 20 | 60 | 69 | 57 | 30 | 16 | 37 | 20 | 87 | 50 | 11 | 80 | – | GI50 ([20]; HT1080 cells): 50 nM; IC50 (μM) HDAC7 (HDAC7): no activity |
| C/C=C1\NC(=O)c2nc(F)cc(n2)CNC(=O)C[C@@H](/C=C/CCSC(C)=O)OC(=O)[C@H](C(C)C)NC1=O [Compound 96] | – | – | 37 | 27 | 48 | – | 54 | – | – | 57 | 73 | – | 72 | 65 | – | 61 | – | 19 | – | no activity | GI50 [1]: 40 nM; GI50 [2]: 20 nM; GI50 [6]: 20 nM; GI50 [8]: 30 nM; GI50 [9]: 40 nM; GI50 [12]: 20 nM; GI50 [15]: 20 nM; GI50 [17]: 60 nM; GI50 [19]: 30 nM; GI50 [20]: 40 nM |
| C/C=C1\NC(=O)c2ccc(SC)c(n2)CNC(=O)C[C@@H](/C=C/CCSC(=O)CCCCCCC)OC(=O)[C@H](C)NC1=O [Compound 182] | 60 | 70 | 71 | 23 | 35 | 30 | 41 | 100 | 90 | 35 | 39 | 80 | 31 | 23 | 50 | 35 | 60 | 83 | 30 | no activity | GI50 ([20]; HT1080 cells): 30 nM |
| C/C=C1\NC(=O)c2nc(ccc2F)CNC(=O)C[C@@H](/C=C/CCS)OC(=O)[C@H](Cc2ccc(O)cc2)NC1=O [Compound 128] | – | – | 23 | 35 | 49 | – | 53 | – | – | 55 | 23 | – | 41 | 39 | – | 53 | – | 73 | – | no activity | GI50 [1]: 30 nM; GI50 [2]: 70 nM; GI50 [6]: 50 nM; GI50 [8]: 100 nM; GI50 [9]: 130 nM; GI50 [12]: 50 nM; GI50 [15]: 50 nM; GI50 [17]: 40 nM; GI50 [19]: 20 nM; GI50 [20]: 70 nM |
| C/C=C1\NC(=O)c2ccc(SCC)c(n2)CNC(=O)C[C@@H](/C=C/CCSC(=O)CCCCCC)OC(=O)[C@H](C(C)C)NC1=O [Compound 252] | 50 | 30 | 35 | 67 | 26 | 20 | 81 | 50 | 60 | 42 | 90 | 40 | 72 | 76 | 70 | 79 | 50 | 81 | 90 | – | GI50 ([20]; HT1080 cells): 40 nM; IC50 (μM) HDAC7 (HDAC7): no activity |
| C/C=C1\NC(=O)c2cc(SC)cc(n2)CNC(=O)C[C@@H](/C=C/CCS)OC(=O)[C@H](CC)NC1=O [Compound 230] | 20 | 30 | 48 | 36 | 91 | 70 | 87 | 50 | 30 | 83 | 35 | 20 | 26 | 35 | 50 | 23 | 20 | 23 | 30 | no activity | GI50 ([20]; HT1080 cells): 20 nM |
| C/C=C1\NC(=O)c2ccc(F)c(n2)CNC(=O)C[C@@H](/C=C/CCSC(=O)CCCCC)OC(=O)[C@H](C(C)C)NC1=O [Example 38] | – | – | 34 | 49 | 33 | – | 64 | – | – | 33 | 34 | – | 77 | 84 | – | 84 | – | 39 | – | no activity | GI50 [1]: 30 nM; GI50 [2]: 40 nM; GI50 [6]: 60 nM; GI50 [8]: 30 nM; GI50 [9]: 80 nM; GI50 [12]: 30 nM; GI50 [15]: 30 nM; GI50 [17]: 70 nM; GI50 [19]: 30 nM; GI50 [20]: 80 nM |
